Measurements: patent US6160011A (priority 1998, dated 2000)
Where two headings read alike, the source gives them in different places.

Columns and labels:
[1] = cited from earlier work
[2] = system: androgen receptor (in vivo functional activity); conditions: vs other antiandrogen therapies; cited from earlier work
[3] = target: T1, cytosolic androgen receptor (AR) (Rattus norvegicus, UniProt P15207); assay: Saturation binding of 3H-MIB to AR in cytosol (Scatchard); set-up: species or system Sprague-Dawley rats; conditions: mean±S.D., n=3; 4° C., 18 hours
T1 construct: The supernatant (cytosol) containing AR protein was removed and stored; from tissue; host or cells: ventral prostate cytosol of castrated male Sprague-Dawley rats
T1 sequence (P15207 1-902): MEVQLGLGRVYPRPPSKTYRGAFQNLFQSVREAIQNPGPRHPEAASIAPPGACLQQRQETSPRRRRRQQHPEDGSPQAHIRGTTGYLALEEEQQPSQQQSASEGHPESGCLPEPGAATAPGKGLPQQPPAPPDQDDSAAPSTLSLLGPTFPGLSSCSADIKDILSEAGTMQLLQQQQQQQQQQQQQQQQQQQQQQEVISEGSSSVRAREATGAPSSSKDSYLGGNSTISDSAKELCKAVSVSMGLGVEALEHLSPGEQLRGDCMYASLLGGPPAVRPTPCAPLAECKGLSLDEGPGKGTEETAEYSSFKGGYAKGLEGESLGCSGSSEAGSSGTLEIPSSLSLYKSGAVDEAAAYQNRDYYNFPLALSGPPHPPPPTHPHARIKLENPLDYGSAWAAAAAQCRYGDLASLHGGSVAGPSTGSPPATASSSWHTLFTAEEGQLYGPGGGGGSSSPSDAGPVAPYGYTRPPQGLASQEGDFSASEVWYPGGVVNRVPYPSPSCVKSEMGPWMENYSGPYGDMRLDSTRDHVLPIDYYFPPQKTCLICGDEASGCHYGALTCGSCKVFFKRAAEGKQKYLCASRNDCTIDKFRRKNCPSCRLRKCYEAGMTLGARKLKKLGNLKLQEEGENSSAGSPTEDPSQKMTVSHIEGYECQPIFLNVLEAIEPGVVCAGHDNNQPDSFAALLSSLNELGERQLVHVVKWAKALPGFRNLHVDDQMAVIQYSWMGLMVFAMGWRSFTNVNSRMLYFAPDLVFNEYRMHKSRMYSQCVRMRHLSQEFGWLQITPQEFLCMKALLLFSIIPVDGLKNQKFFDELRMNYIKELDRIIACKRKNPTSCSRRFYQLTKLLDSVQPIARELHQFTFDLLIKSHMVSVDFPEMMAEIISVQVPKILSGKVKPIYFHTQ

[4] = system: AR; assay: Covalent (irreversible) binding to the AR; conditions: studies not described
[5] = system: AR (plasmid pCMVhAR) in CV-1 cells; assay: Transcriptional activation (AR-mediated luciferase reporter, cotransfected CV-1 cells); format: cell-based; conditions: for minimal effective concentration: read-out: Potency: lowest concentration of the ligand capable of maximally stimulating AR-mediated transcription
Protocol: The agonist activity of each ligand was examined using transfected CV-1 cells (American Type Culture Collection, Rockville, Md.). CV-1 cells were maintained in DMEM containing 10% FBS at 37° C. in a humidified atmosphere containing 5% carbon dioxide. DMEM without phenol red was used during transfection studies. One day before transfection, monolayer cells were removed from flasks and plated at a density of 4.5×10^5 cells/well in 6-well tissue culture plates. Cells in each well were then cotransfected with 100 ng of an AR expression vector (plasmid pCMVhAR; provided by Dr. Elizabeth Wilson at The University of North Carolina, Chapel Hill, N.C.), 2.5 μg of a luciferase reporter vector (plasmid pMMTV-Luc; provided by Dr. Ronald Evans at The Salk Institute, San Diego, Calif.), and 2.5 μg of a control β-galactosidase vector (plasmid pSV-β-galactosidase; Promega Corporation, Madison, Wis.). Transfection was performed using Lipofectamine™ according to the manufacturer's instructions (Life Technologies, Gaithersburg, Md.). Ten hours after adding the transfection reagent, cells were washed twice with DMEM containing 0.2% FBS and then returned to the incubator. After an additional 10 to 12 hours of incubation, the medium was removed and replaced with DMEM containing 0.2% FBS and various concentrations of DHT or the ligand of interest. Final ligand concentrations were 0.1, 1, 10, 50, 100, 500, and 1,000 nM. The drug-containing medium was replaced after 24 hours of incubation to minimize the possible effects of ligand degradation on measurement of transcriptional activation. Control studies in which neither DHT nor ligand were added to the medium were also performed. Cells were washed with phosphate buffered saline, pH 7.4, after 48 hours of drug treatment and harvested using 350 μL of reporter lysis buffer (Promega Corporation, Madison, Wis.). Cell lysates were transferred to a microcentrifuge tube, vortexed briefly, and centrifuged at 12,000 g for 2 minutes; An aliquot (150 μL) of supernatant was used for determination of β-galactosidase activity in each well using a spectrophotometer (Cary Model 1E, Varian Associates, Sunnyvale, Calif.) set at a wavelength of 420 nm. A separate aliquot (100 μL) was used for determination of luciferase activity assay (Luciferase Assay System, Promega Corporation, Madison, Wis.) using an automated luminometer (Model AutoLumat LB953, Wallac Inc., Gaithersburg, Md.). Viable cell numbers and transfection efficiency in each well were normalized by expressing the transcriptional activation as a ratio of the luciferase activity to β-galactosidase activity in individual wells. […] All experiments were performed in triplicate. Potency was reported as the lowest concentration of the ligand used during transfection experiments capable of producing maximal AR-mediated transcriptional activation.

[6] = target: T1, cytosolic androgen receptor (AR); assay: biochemical; format: binding, Sprague-Dawley rats
[7] = system: sperm production in men; conditions: cited from earlier work
[8] = oral administration; cited from earlier work
[9] = CV-1, 48 h, read-out: Agonist Activity (% of DHT): maximal percentage of transcriptional activation observed for each ligand
[10] = CV-1, read-out: agonist activity
[11] = 3H-MIB 1 nM, 4° C., 18 hours, R-isomers of C-1 to C-5, read-out: Ki (Table 1)
[12] = healthy male volunteers, single oral dose of the racemic mixture

## CC(O)(CS(=O)(=O)c1ccc(F)cc1)C(=O)Nc1ccc(C#N)c(C(F)(F)F)c1 (racemic) [Casodex]
[1]; after oral administration
  oral absorption: well absorbed after oral administration
[1]; in man
  biological half-life: 6 days
[2]
  tolerance (in words): improved tolerance

## C[C@@H]1CC2=CC(=O)CC[C@@H]2[C@H]2CC[C@@]3(C)[C@@H](CC[C@]3(C)O)[C@@H]21 [3H-MIB, (17α-methyl-^3 H)-Mibolerone]
[3]
  Kd: 0.19 ± 0.01 nM

## C[C@](O)(CSc1ccc(NC(=O)CCl)cc1)C(=O)Nc1ccc(C#N)c(C(F)(F)F)c1 [C-1 (R)]
[4]
  covalent (irreversible) binding to AR: does not covalently (i.e., irreversibly) bind the AR

## C[C@](O)(CBr)C(=O)Nc1ccc(C#N)c(C(F)(F)F)c1 [C-2]
[5]; [9]
  Emax: 18.5 ± 5.08%
[5]; CV-1, 48 h
  minimal effective concentration: 0.5 µM
[5]; [10]
  Emax: < 20%
[6]; [11]
  Ki: 7.98 ± 0.86 nM

## C[C@](O)(CI)C(=O)Nc1ccc(C#N)c(C(F)(F)F)c1 [C-4]
[5]; [9]
  Emax: 20.5 ± 7.57%
[5]; CV-1, 48 h
  minimal effective concentration: 0.5 µM
[5]; [10]
  Emax: < 20%
[6]; [11]
  Ki: 2.79 ± 1.35 nM

## C[C@](O)(CI)C(=O)Nc1ccc([N+](=O)[O-])c(C(F)(F)F)c1 [C-5]
[5]; [9]
  Emax: 88.6 ± 18%
[5]; CV-1, 48 h
  minimal effective concentration: 0.5 µM
[6]; [11]
  Ki: 0.86 ± 0.11 nM

## CC(=O)Nc1ccc(S(=O)(=O)C[C@](C)(O)C(=O)Nc2ccc(C#N)c(C(F)(F)F)c2)cc1 [C-7]
[6]
  Ki: 1.7 nM
  RBA (%): (IC50 of DHT)/(IC50 of a ligand)*100%: 15.9%

## CC(=O)Nc1ccc(SC[C@](C)(O)C(=O)Nc2ccc(C#N)c(C(F)(F)F)c2)cc1 [C-8 (R)]
[6]
  Ki: 1 nM
  RBA (%): (IC50 of DHT)/(IC50 of a ligand)*100%: 26.9%

## CC(=O)Nc1ccc(SC[C@@](C)(O)C(=O)Nc2ccc(C#N)c(C(F)(F)F)c2)cc1 [C-8 (S)]
[6]
  Ki: 141 nM
  RBA (%): (IC50 of DHT)/(IC50 of a ligand)*100%: 0.19%

## CC(=O)N(C(C)=O)c1ccc(SC[C@](C)(O)C(=O)Nc2ccc(C#N)c(C(F)(F)F)c2)cc1 [C-9]
[6]
  Ki: 2.64 nM
  RBA (%): (IC50 of DHT)/(IC50 of a ligand)*100%: 10.2%

## CCC(=O)Nc1ccc(SC[C@](C)(O)C(=O)Nc2ccc(C#N)c(C(F)(F)F)c2)cc1 [C-10]
[6]
  Ki: 3.81 nM
  RBA (%): (IC50 of DHT)/(IC50 of a ligand)*100%: 7.08%

## CCC(=O)N(C(=O)CC)c1ccc(SC[C@](C)(O)C(=O)Nc2ccc(C#N)c(C(F)(F)F)c2)cc1 [C-11]
[6]
  Ki: > 1000 nM
  RBA (%): (IC50 of DHT)/(IC50 of a ligand)*100%: < 0.10%

## C[C@]12CCC(=O)C[C@@H]1CC[C@@H]1[C@@H]2CC[C@]2(C)[C@@H](O)CC[C@@H]12 [DHT, dihydrotestosterone, reference compound]
[5]; [9]
  Emax: 100%

## C[C@](O)(CS(=O)(=O)c1ccc(F)cc1)C(=O)Nc1ccc(C#N)c(C(F)(F)F)c1 [R-Bicalutamide, reference compound]
[1]; [12]
  elimination half-life: 101 h
[5]
  AR-mediated transcriptional activation (in words): unable to stimulate AR-mediated transcriptional activation at even the highest concentrations tested
[5]; [9]
  Emax: 8.28 ± 2.66%
[5]; CV-1, read-out: mean agonist activity at 1,000 nM
  Emax at 1 µM: 8.3%

## C[C@@](O)(CS(=O)(=O)c1ccc(F)cc1)C(=O)Nc1ccc(C#N)c(C(F)(F)F)c1 [S-Casodex]
[1]; [12]
  elimination half-life (t1/2): 19 h

## CCCCCCC(=O)O[C@H]1CC[C@H]2[C@@H]3CCC4=CC(=O)CC[C@]4(C)[C@H]3CC[C@]12C [testosterone enanthate]
[7]; immediately following intramuscular injection
  testosterone peak levels after injection (in words): supraphysiologic peak levels of testosterone
[7]; weekly intramuscular injections, WHO report
  azoospermia or severe oligospermia (less than 3 million sperm per ml) and infertility, share of men: 98%

## C[C@]12CC[C@H]3[C@@H](CCC4=CC(=O)CC[C@@]43C)[C@@H]1CC[C@@H]2O [testosterone]
[8]
  oral absorption / androgenic effect (in words): readily absorbed after oral administration, but demonstrates little androgenic effect due to rapid hepatic metabolism
